For 26 compounds, IC50 results are on record in patent publication US20230095520A1, “PHARMACEUTICAL COMPOSITION FOR PREVENTING OR TREATING CANCER COMPRISING AZOLE DERIVATIVES OR PHARMACEUTICALLY ACCEPTABLE SALT THEREOF” (Yungjin Pharm. Co., Ltd., priority 2020, published 2023).

The structures appear in SMILES notation.

The target of the test is T1, Recombinant purified human CDK7 (Homo sapiens, UniProt P50613).
T1 construct: purchased ThermoFisher PV3868
T1 sequence (P50613 whole entry): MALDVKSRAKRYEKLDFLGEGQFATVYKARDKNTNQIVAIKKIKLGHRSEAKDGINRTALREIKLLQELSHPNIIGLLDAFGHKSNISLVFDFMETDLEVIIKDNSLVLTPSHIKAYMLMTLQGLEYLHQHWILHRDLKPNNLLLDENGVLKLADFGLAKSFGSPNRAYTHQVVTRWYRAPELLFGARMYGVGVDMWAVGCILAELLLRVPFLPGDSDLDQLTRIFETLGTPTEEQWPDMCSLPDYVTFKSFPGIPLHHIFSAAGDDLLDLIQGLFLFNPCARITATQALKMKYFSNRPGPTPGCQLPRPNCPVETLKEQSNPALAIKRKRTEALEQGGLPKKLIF
T1 sequence (P51946 whole entry partner): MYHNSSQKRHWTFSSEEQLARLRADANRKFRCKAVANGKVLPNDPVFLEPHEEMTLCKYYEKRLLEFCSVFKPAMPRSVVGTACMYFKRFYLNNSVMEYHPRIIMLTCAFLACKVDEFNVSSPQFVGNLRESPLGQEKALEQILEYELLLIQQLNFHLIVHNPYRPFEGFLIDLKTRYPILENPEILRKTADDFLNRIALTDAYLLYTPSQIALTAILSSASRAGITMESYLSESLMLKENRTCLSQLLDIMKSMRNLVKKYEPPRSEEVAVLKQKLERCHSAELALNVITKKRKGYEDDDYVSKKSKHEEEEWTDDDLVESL
T1 sequence (P51948 whole entry partner): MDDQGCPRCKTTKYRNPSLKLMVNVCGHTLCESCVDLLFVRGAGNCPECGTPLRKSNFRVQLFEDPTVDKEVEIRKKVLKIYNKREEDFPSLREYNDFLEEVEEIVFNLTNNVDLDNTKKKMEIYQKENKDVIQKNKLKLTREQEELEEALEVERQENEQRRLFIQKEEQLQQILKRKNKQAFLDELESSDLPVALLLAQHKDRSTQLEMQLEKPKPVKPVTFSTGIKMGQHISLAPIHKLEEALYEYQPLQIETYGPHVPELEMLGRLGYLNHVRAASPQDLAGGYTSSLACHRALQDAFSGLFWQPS
The experiment in a line: CDK7 activity inhibition, ADP-Glo kinase assay. It is filed as biochemical. The settings on record: ATP 90 μM, MBP substrate, 2 hours 30° C. As to the method: Recombinant purified human CDK7 (ThermoFisher, PV3868) and ADP Glo Kinase Assay Kit (Promega, V9102) were used. CDK7 was diluted with 1× kinase reaction buffer (40 mM Tris-Cl, pH 7.5, 20 mM MgCl2, 0.1 mg/ml BSA and 50 μM DTT) and added to a 96 well plate (CDK7 final concentration per reaction: 50 ng). It was finally treated with the compound of the present invention to a 1% DMSO aqueous solution, and a substrate cocktail containing ATP (final concentration of 90 μM) and 0.2 μg/μl MBP (myelin basic protein) in a total of 25 μl reaction mass was added to a 96 well plate, thereby initiating the enzymatic reaction. After 2 hours of incubation (30° C.), an equal volume (25 μl per reaction) of ADP Glo was added and incubated at room temperature for 60 minutes (30° C.). Thereafter, kinase detection reagent (50 μl per reaction) was added and incubated at room temperature for 30 minutes (30° C.). The kinase activity was measured by the chemiluminescence method according to the ADP Glo Kinase Assay Kit instruction manual, and the CDK7 inhibitory activity of the compounds of the present invention was calculated.
A general note: ADP-Glo turns the ADP formed in a reaction into a luminescent signal.
One may read the IC50 as the concentration at which inhibition is half-maximal. On to `C[C@H](C(=O)Nc1ncc(C(F)(F)F)s1)c1cccc(-c2cnc(NC(=O)/C=C/CN3CCCC3)cn2)c1` [Compound 102, (S,E)-N-(5-(3-(1-oxo-1-((5-(trifluoromethyl)thiazol-2-yl)amino)propan-2-yl)phenyl)pyrazin-2-yl)-4-(pyrrolidin-1-yl)but-2-enamide], for which the IC50 amounted to 13 nM.
Consider `C[C@H](C(=O)Nc1ncc(C(F)(F)F)s1)c1cccc(-c2cnc(NC(=O)/C=C/CN3CCC3)cn2)c1` [Compound 103, (S,E)-4-(azetidin-1-yl)-N-(5-(3-(1-oxo-1-((5-(trifluoromethyl)thiazol-2-yl)amino)propan-2-yl)phenyl)pyrazin-2-yl)but-2-enamide], for which the IC50 worked out at 13 nM.
As for `C[C@H](C(=O)Nc1ncc(N(C)C)s1)c1cccc(-c2cnc(NC(=O)/C=C/CN(C)C)cn2)c1` [Compound 106, (S,E)-4-(dimethylamino)-N-(5-(3-(1-((5-(dimethylamino)thiazol-2-yl)amino)oxopropan-2-yl)phenyl)pyrazin-2-yl)but-2-enamide], the IC50 was 71 nM.
The same measure for `CC(C(=O)Nc1ncc(C(F)(F)F)s1)c1cncc(-c2ccc(NC(=O)/C=C/CN(C)C)nc2)c1` (centres unmarked) [Compound 107, (E)-4-(dimethylamino)-N-(5′-(1-oxo-1-((5-(trifluoromethyl)thiazol-2-yl)amino)propan-2-yl)-[3,3′-bipyridin]-6-yl)but-2-enamide]: 31 nM.
Regarding `COc1nc(-c2cccc([C@H](C)C(=O)Nc3ncc(C(F)(F)F)s3)c2)cnc1NC(=O)/C=C/CN(C)C` [Compound 109, (S,E)-4-(dimethylamino)-N-(3-methoxy-5-(3-(1-oxo-1-((5-(trifluoromethyl)thiazol-2-yl)amino)propan-2-yl)phenyl)pyrazin-2-yl)but-2-enamide], the IC50 was found to be 8.2 nM.
Consider `C[C@H](C(=O)Nc1ncc(C(F)(F)F)s1)c1cccc(-c2cnc3c(c2)CCN3C(=O)/C=C/CN(C)C)c1` [Compound 110, (S,E)-2-(3-(1-(4-(dimethylamino)but-2-enoyl)-2,3-dihydro-1H-pyrrolo[2,3-b]pyridin-5-yl)phenyl)-N-(5-(trifluoromethyl)thiazol-2-yl)propanamide], for which the IC50 is 5.9 nM.
With `C[C@H](C(=O)Nc1ncc(C(F)(F)F)s1)c1cccc(-c2cnc(NC(=O)/C=C/CN(C)C)c(C(F)(F)F)c2)c1` [Compound 111, (S,E)-4-(dimethylamino)-N-(5-(3-(1-oxo-1-((5-(trifluoromethyl)thiazol-2-yl)amino)propan-2-yl)phenyl)-3-(trifluoromethyl)pyridin-2-yl)but-2-enamide], the IC50 came out at 9.5 nM.
Under `Cc1cc(-c2cccc([C@H](C)C(=O)Nc3ncc(C(F)(F)F)s3)c2)cnc1NC(=O)/C=C/CN(C)C` [Compound 112, (S,E)-4-(dimethylamino)-N-(3-methyl-5-(3-(1-oxo-1-((5-(trifluoromethyl)thiazol-2-yl)amino)propan-2-yl)phenyl)pyridin-2-yl)but-2-enamide] stands 17 nM; under `C[C@H](C(=O)Nc1ncc(C(F)(F)F)s1)c1cccc(-c2cnc(NC(=O)/C=C/CN(C)C)c(Cl)c2)c1` [Compound 113, (S,E)-N-(3-chloro-5-(3-(1-oxo-1-((5-(trifluoromethyl)thiazol-2-yl)amino)propan-2-yl)phenyl)pyridin-2-yl)-4-(dimethylamino)but-2-enamide], 8.5 nM.
The same measure for `CCN(CC)C/C=C/C(=O)Nc1cnc(-c2cccc([C@H](C)C(=O)Nc3ncc(C(F)(F)F)s3)c2)cn1` [Compound 114, (S,E)-4-(diethylamino)-N-(5-(3-(1-oxo-1-((5-(trifluoromethyl)thiazol-2-yl)amino)propan-2-yl)phenyl)pyrazin-2-yl)but-2-enamide]: 12 nM.
Under `C[C@H](C(=O)Nc1ncc(C(F)(F)F)s1)c1cccc(-c2ccc(NC(=O)/C=C/CN(C)C)nc2)c1` [Compound 116, (S,E)-4-(dimethylamino)-N-(5-(3-(1-oxo-1-((5-(trifluoromethyl)thiazol-2-yl)amino)propan-2-yl)phenyl)pyridin-2-yl)but-2-enamide] stands 13.5 nM; under `C[C@H](C(=O)Nc1ncc(C(F)(F)F)s1)c1cccc(-c2cnc(NC(=O)/C=C/CN3CC[C@H](F)C3)cn2)c1` [Compound 117, (E)-4-((S)-3-fluoropyrrolidin-1-yl)-N-(5-(3-((S)-1-oxo-1-((5-(trifluoromethyl)thiazol-2-yl)amino)propan-2-yl)phenyl)pyrazin-2-yl)but-2-enamide], 15.4 nM.
For `COC[C@@H]1CCCN1C/C=C/C(=O)Nc1cnc(-c2cccc([C@H](C)C(=O)Nc3ncc(C(F)(F)F)s3)c2)cn1` [Compound 118, (E)-4-((S)-2-(methoxymethyl)pyrrolidin-1-yl)-N-(5-(3-((S)-1-oxo-1-((5-(trifluoromethyl)thiazol-2-yl)amino)propan-2-yl)phenyl)pyrazin-2-yl)but-2-enamide], the IC50 turned out to be 20 nM.
As for `C[C@H](C(=O)Nc1ncc(C(F)(F)F)s1)c1cccc(-c2cnc(NC(=O)/C=C/CN3CCCCC3)cn2)c1` [Compound 120, (S,E)-N-(5-(3-(1-oxo-1-((5-(trifluoromethyl)thiazol-2-yl)amino)propan-2-yl)phenyl)pyrazin-2-yl)-4-(piperidin-1-yl)but-2-enamide], the IC50 amounted to 16 nM.
With `CCc1cnc(NC(=O)[C@@H](C)c2cccc(-c3cnc4c(c3)CCN4C(=O)/C=C/CN(C)C)c2)s1` [Compound 122, (S,E)-2-(3-(1-(4-(dimethylamino)but-2-enoyl)-2,3-dihydro-1H-pyrrolo[2,3-b]pyridin-5-yl)phenyl)-N-(5-ethylthiazol-2-yl)propanamide], the IC50 was 6 nM.
As for `CCc1cnc(NC(=O)[C@@H](C)c2cccc(-c3cnc(NC(=O)/C=C/CN4CC5CC4CO5)c(C#N)c3)c2)s1` (stereo partly drawn) [Compound 123, (E)-4-(2-oxa-5-azabicyclo[2.2.1]heptan-5-yl)-N-(3-cyano-5-(3-((S)-1-((5-ethylthiazol-2-yl)amino)-1-oxopropan-2-yl)phenyl)pyridin-2-yl)but-2-enamide], the IC50 is 5.3 nM.
`C=CC(=O)Nc1ncc(-c2cccc([C@H](C)C(=O)Nc3ncc(C(F)(F)F)s3)c2)cc1C#N` [Compound 124, (S)-N-(3-cyano-5-(3-(1-oxo-1-((5-(trifluoromethyl)thiazol-2-yl)amino)propan-2-yl)phenyl)pyridin-2-yl)acrylamide]: the IC50 came out at 4.5 nM.
In the case of `CCc1cnc(NC(=O)[C@@H](C)c2cccc(-c3cnc(NC(=O)/C=C/CN(C)C)c(C)c3)c2)s1` [Compound 125, (S,E)-4-(dimethylamino)-N-(5-(3-(1-((5-ethylthiazol-2-yl)amino)-1-oxopropan-2-yl)phenyl)-3-methylpyridin-2-yl)but-2-enamide], the IC50 turned out to be 13.2 nM.
As to `CCc1cnc(NC(=O)C2(c3cccc(-c4cnc(NC(=O)/C=C/CN(C)C)c(C#N)c4)c3)CC2)s1` [Compound 128, (E)-1-(3-(5-cyano-6-(4-(dimethylamino)but-2-enamido)pyridin-3-yl)phenyl)-N-(5-ethylthiazol-2-yl)cyclopropane-1-carboxamide], the IC50 came to 50 nM.
Take `CCc1cnc(NC(=O)C(CC)c2cccc(-c3ccc(NC(=O)/C=C/CN(C)C)cn3)c2)s1` (centres unmarked) [Compound 131, (E)-4-(dimethylamino)-N-(6-(3-(1-((5-ethylthiazol-2-yl)amino)-1-oxobutan-2-yl)phenyl)pyridin-3-yl)but-2-enamide]: the IC50 was determined as 59 nM.
Consider `CCc1cnc(NC(=O)[C@@H](C)c2cccc(-c3cnc(N(C)C(=O)/C=C/CN(C)C)c(C#N)c3)c2)s1` [Compound 132, (S,E)-N-(3-cyano-5-(3-(1-((5-ethylthiazol-2-yl)amino)-1-oxopropan-2-yl)phenyl)pyridin-2-yl)-4-(dimethylamino)-N-methylbut-2-enamide], for which the IC50 was 6.6 nM.
For `CCc1cnc(NC(=O)C2(c3cccc(-c4cnc5c(c4)CCN5C(=O)/C=C/CN(C)C)c3)CC2)s1` [Compound 133, (E)-1-(3-(1-(4-(dimethylamino)but-2-enoyl)-2,3-dihydro-1H-pyrrolo[2,3-b]pyridin-5-yl)phenyl)-N-(5-ethylthiazol-2-yl)cyclopropane-1-carboxamide], the IC50 stood at 47 nM.
The same measure for `CCc1cnc(NC(=O)[C@@H](C)c2cccc(-c3cnc(NC(=O)/C=C/CN4CCOCC4)c(C#N)c3)c2)s1` [Compound 135, (S,E)-N-(3-cyano-5-(3-(1-((5-ethylthiazol-2-yl)amino)-1-oxopropan-2-yl)phenyl)pyridin-2-yl)-4-morpholinobut-2-enamide]: 13 nM.
With `CCc1cnc(NC(=O)[C@@H](C)c2cccc(-c3cnc(NC(=O)/C=C/CN4CCN(C)CC4)c(C#N)c3)c2)s1` [Compound 136, (S,E)-N-(3-cyano-5-(3-(1-((5-ethylthiazol-2-yl)amino)-1-oxopropan-2-yl)phenyl)pyridin-2-yl)-4-(4-methylpiperazin-1-yl)but-2-enamide], the IC50 came to 33 nM.
For `CCc1cnc(NC(=O)C(C)c2cncc(-c3cnc(NC(=O)/C=C/CN(C)C)c(C#N)c3)c2)s1` (centres unmarked) [Compound 137, (E)-N-(5-cyano-5′-(1-((5-ethylthiazol-2-yl)amino)-1-oxopropan-2-yl)-[3,3′-bipyridin]-6-yl)-4-(dimethylamino)but-2-enamide], the IC50 stood at 13 nM.
Consider `CCc1cnc(NC(=O)C(CC)c2cccc(-c3cnc(NC(=O)/C=C/CN(C)C)c(C#N)c3)c2)s1` (centres unmarked) [Compound 138, (E)-N-(3-cyano-5-(3-(1-((5-ethylthiazol-2-yl)amino)-1-oxobutan-2-yl)phenyl)pyridin-2-yl)-4-(dimethylamino)but-2-enamide], for which the IC50 stood at 8 nM.
